Source: patent US8808702B2, “Sulfide, sulfoxide and sulfone chalcone analogues, derivatives thereof and therapeutic uses thereof” (Temple University-of the Commonwealth System of Higher …, priority 2006, dated 2014)
Like-named read-outs stand apart in the source and are kept apart here.

Tests used:
[1] = tested on: K562 (chronic myelogenous leukaemia); test: Effect of compounds on tumor cell lines (assay of Latham et al.), K562; type: cell-based; conditions: K562 cells, read-out: K 562 potency (IC50)
Procedure, shortened: (§1)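 After 96 h of exposure to compound (1–100 μM in DMSO; one compound at 0.1–100 μM), effects were scored by inverted-microscope inspection, with trypan blue viable counts by hemacytometer when required. Cells were seeded at 2.5×10^4 per well and dosed 24 h after plating.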

DU145 (prostate cancer) = test: Effect of compounds on tumor cell lines (assay of Latham et al.), DU145; type: cell-based; conditions: DU145 cells, read-out: DU 145 potency (IC50)
Procedure, shortened: as §1

[2] = Table 1, examined 96 hours after treatment, 1 μM to 100 μM in DMSO
[3] = 96 hours after treatment, 1 μM to 100 μM

Structure (SMILES) | IC50 [1, 2] [µM] | IC50 (DU145 (prostate cancer); [2]) [µM] | IC50 [1, 3] [µM] | IC50 (DU145 (prostate cancer); [3]) [µM] | further results
O=C(/C(=C\c1ccc(O)c([N+](=O)[O-])c1)S(=O)(=O)Cc1ccccc1Cl)c1ccc(Cl)cc1 [Example 362] |  |  |  |  | melting point: 222 to 226 °C
COc1ccccc1/C=C(\C(=O)c1ccc(Br)cc1)S(=O)(=O)Cc1ccc(F)cc1 [Example 404] |  |  |  |  | melting point: 145 to 151 °C
COc1ccc(/C=C(\C(=O)c2ccc(Br)cc2)S(=O)(=O)Cc2ccc(F)cc2)cc1 [Example 415] |  |  |  |  | melting point: 121 to 123 °C
Cc1ccc(SC(=Cc2cnc3ccccc3c2)C(=O)c2ccc(Cl)cc2)cc1 [Example 85] | > 100 | > 100 |  |  | 
CCN(CC)CCNC(=O)c1ccc(C(=O)C(=Cc2ccc(F)c([N+](=O)[O-])c2)SCc2ccc(Br)cc2)cc1 [Example 313] |  |  | ≤ 1 | 1 to 10 | 
O=C(C(=Cc1cc(Br)c(O)c(Br)c1)SCc1ccc(Br)cc1)c1ccc(Br)cc1 [Example 147] |  |  | 10 to 25 | 1 to 10 | 
Cc1ccc(C=C(SCc2ccc(Cl)cc2)C(=O)c2ccc(Br)cc2)s1 [Example 229] |  |  | 50 to 100 | > 100 | 
O=C(C(=Cc1ccc([N+](=O)[O-])c(O)c1)SCc1ccc(Br)cc1)c1ccc([N+](=O)[O-])c(Cl)c1 [Example 154] |  |  | 1 to 10 | 1 to 10 | 
CN(C)c1ccc(/C=C(/SCc2ccc(Br)cc2)C(=O)c2ccc(C(=O)O)cc2)cc1 [Example 164] |  |  | 25 to 50 | 50 to 100 | 
O=C(/C(=C\c1ccc(O)c([N+](=O)[O-])c1)SCc1ccc(Br)cc1)c1c(F)c(F)c(F)c(F)c1F [Example 175] |  |  | 10 to 25 | 10 to 25 | 
COc1ccc2[nH]cc(C=C(Sc3ccc(Br)cc3)C(=O)c3ccc(Br)cc3)c2c1 [Example 52] | 1 to 10 | 1 to 10 |  |  | 
O=C(C(=Cc1ccc(O)cc1O)Sc1ccccc1Br)c1ccc(Cl)cc1 [Example 7] | 50 to 100 | 50 to 100 |  |  | 
Cc1ccc(SC(=Cc2cc([N+](=O)[O-])ccc2F)C(=O)c2ccc(Cl)cc2)cc1 [Example 74] | 1 to 10 | 10 to 25 |  |  | 
O=C(O)c1ccc(C(=O)C(=Cc2ccc(F)c([N+](=O)[O-])c2)SCc2ccccc2Cl)cc1 [Example 303] |  |  | 1 to 10 | 1 to 10 | 
O=C(C(=Cc1ccc(Oc2ccccc2)cc1)Sc1ccc(Br)cc1)c1ccc(Br)cc1 [Example 50] | 50 to 100 | 50 to 100 |  |  | 
O=C(C(=Cc1ccc(Cl)c([N+](=O)[O-])c1)Sc1ccc(Br)cc1)c1ccc(Br)cc1 [Example 37] | 1 to 10 | 1 to 10 |  |  | 
O=C(O)c1ccc(C(=O)C(=Cc2ccc(Cl)c([N+](=O)[O-])c2)SCc2ccc(Cl)cc2Cl)cc1 [Example 300] |  |  | ≤ 1 | 1 to 10 | 
Cc1ccc(SC(=Cc2c[nH]c3ccc(Br)cc23)C(=O)c2ccc(Br)cc2)cc1 [Example 105] | 10 to 25 | 1 to 10 |  |  | 
COc1ccc(SC(=Cc2ccc(Cl)cc2Cl)C(=O)c2ccc(Br)cc2)cc1 [Example 61] | 1 to 10 | 1 to 10 |  |  | 
CN(C)c1ccc(C=C(SCc2ccc(F)cc2)C(=O)c2ccc(Br)cc2)cc1 [Example 249] |  |  | 1 to 10 | 25 to 50 | 
COc1cc(OC)c(C=C(Sc2ccc(Br)cc2)C(=O)c2ccc(Cl)cc2)c(OC)c1 [Example 14] | 50 to 100 | 50 to 100 |  |  | 

Structure (SMILES) | IC50 [1, 2] [µM] | IC50 (DU145 (prostate cancer); [2]) [µM] | IC50 [1, 3] [µM] | IC50 (DU145 (prostate cancer); [3]) [µM] | further results
Cc1ccsc1C=C(SCc1ccc(Cl)cc1Cl)C(=O)c1ccc(Cl)cc1 [Example 119] |  |  | 50 to 100 | 10 to 25 | 
O=C(/C(=C\c1ccc(F)c([N+](=O)[O-])c1)SCc1ccc(F)cc1)c1ccc(OCCCN2CCOCC2)cc1 [Example 340] |  |  | 1 to 10 | 1 to 10 | 
O=C(C(=Cc1ccccc1F)Sc1ccc(Br)cc1)c1ccc(Cl)cc1 [Example 24] | 1 to 10 | 10 to 25 |  |  | 
O=C(/C(=C\c1ccc(Br)cc1)S(=O)(=O)Cc1ccc(F)cc1)c1ccc(Cl)cc1 [Example 410] |  |  |  |  | IC50 ([1]; Homo sapiens, Table 4, examined 96 hours after treatment, 1 μM to 100 μM in DMSO): 50 to 100 µM; IC50 (DU145 (prostate cancer); Homo sapiens, DU-145, Table 4, examined 96 hours after treatment, 1 μM to 100 μM in DMSO): > 100 µM
CSc1ccc(C=C(SCc2ccc(C)cc2)C(=O)c2ccc(Cl)cc2)cc1 [Example 294] |  |  | 10 to 25 | 25 to 50 | 
O=C(/C(=C\c1ccc(O)c([N+](=O)[O-])c1)SCc1ccc(Br)cc1)c1ccc([N+](=O)[O-])c(Cl)c1 [Example 179] |  |  | 1 to 10 | 1 to 10 | 
Cc1ccc(SC(=Cc2sccc2C)C(=O)c2ccc(Cl)cc2)cc1 [Example 84] | 50 to 100 | 50 to 100 |  |  | 
Cc1ccc(CSC(=Cc2cc(Cl)cc(Cl)c2)C(=O)c2ccc(Cl)cc2)cc1 [Example 281] |  |  | 10 to 25 | 10 to 25 | 
COc1ccc(C(=O)C(=Cc2ccc(Cl)cc2)Sc2ccc(F)cc2)cc1 [Example 58] | > 100 | > 100 |  |  | 
O=C(C(=Cc1ccc(Br)c([N+](=O)[O-])c1)Sc1ccc(Br)cc1)c1ccc(Br)cc1 [Example 34] | 1 to 10 | 1 to 10 |  |  | 
O=C(/C(=C\c1ccc([N+](=O)[O-])c(O)c1)SCc1ccc(Br)cc1)c1ccc(N2CCCC2)cc1 [Example 159] |  |  | > 100 | > 100 | 
Cc1ccc(CSC(=Cc2ccc(Br)cc2)C(=O)c2ccc(Cl)cc2)cc1 [Example 286] |  |  | 1 to 10 | 10 to 25 | 
O=C(C(=Cc1ccccc1OCc1ccccc1)SCc1ccc(F)cc1)c1ccc(Br)cc1 [Example 236] |  |  | 1 to 10 | 1 to 10 | 
Cc1ccc(SC(=Cc2c[nH]c3ccc(Cl)cc23)C(=O)c2ccc(Cl)cc2)cc1 [Example 108] | 1 to 10 | 1 to 10 |  |  | 
O=C(/C(=C\c1ccc(Cl)cc1)SCc1ccc(Br)cc1)c1ccccc1Cl [Example 169] |  |  | 1 to 10 | 25 to 50 | 
O=C(C(=Cc1c[nH]c2ccc(Br)cc12)SCc1ccc(Cl)cc1Cl)c1ccc(Cl)cc1 [Example 123] |  |  | 1 to 10 | 10 to 25 | 
O=C(C(=Cc1ccc(OCc2ccccc2)cc1)SCc1ccccc1Cl)c1ccccc1Cl [Example 128] |  |  | 1 to 10 | 1 to 10 | 
Cc1ccc(SC(=Cc2ccc(-c3ccccc3)cc2)C(=O)c2ccc(Cl)cc2)cc1 [Example 111] | 25 to 50 | 50 to 100 |  |  | 
O=C(C(=Cc1ccc(O)c([N+](=O)[O-])c1)SCc1ccccc1Cl)c1ccc(Cl)cc1 [Example 132] |  |  | 10 to 25 | 10 to 25 | 
O=C(O)c1ccc(C(=O)/C(=C\c2ccc(Cl)c([N+](=O)[O-])c2)SCc2ccc(C(F)(F)F)cc2)cc1 [Example 350] |  |  | 1 to 10 | 1 to 10 | 
COc1ccc(/C=C(/SCc2ccc(OC)cc2)C(=O)c2ccc(Cl)cc2)cc1 [Example 346] |  |  | 1 to 10 | 10 to 25 | 

Structure (SMILES) | IC50 [1, 2] [µM] | IC50 (DU145 (prostate cancer); [2]) [µM] | IC50 [1, 3] [µM] | IC50 (DU145 (prostate cancer); [3]) [µM] | further results
O=C(O)c1ccc(C(=O)C(=Cc2ccc([N+](=O)[O-])c(O)c2)SCc2ccc(Br)cc2)cc1 [Example 156] |  |  | 1 to 10 | 10 to 25 | 
COc1ccc(OC)c(C=C(SCc2ccc(Cl)c(Cl)c2)C(=O)c2ccc(Cl)cc2)c1 [Example 138] |  |  | 10 to 25 | 10 to 25 | 
COc1ccc(C=C(Sc2ccc(C)cc2)C(=O)c2ccc(Cl)cc2)cc1 [Example 100] | 1 to 10 | 1 to 10 |  |  | 
Cc1ccc(C=C(SCc2ccc(Cl)cc2Cl)C(=O)c2ccc(Cl)cc2)s1 [Example 124] |  |  | 50 to 100 | 50 to 100 | 
Cc1ccc(SC(=Cc2ccc(Oc3ccccc3)cc2)C(=O)c2ccc(Cl)cc2)cc1 [Example 104] | 10 to 25 | 10 to 25 |  |  | 
O=C(C(=Cc1ccc(OCc2ccccc2)cc1)SCc1ccc(Cl)cc1Cl)c1ccc(Cl)cc1 [Example 121] |  |  | 10 to 25 | 1 to 10 | 
O=C(C(=Cc1ccc(O)c([N+](=O)[O-])c1)SCc1ccc(Cl)cc1)c1ccc(Cl)cc1 [Example 220] |  |  | 10 to 25 | 10 to 25 | 
O=C(C(=Cc1ccccc1OCc1ccccc1)SCc1ccc(Cl)c(Cl)c1)c1ccc(Cl)cc1 [Example 139] |  |  | 10 to 25 | 10 to 25 | 
COc1ccc(C=C(Sc2ccc(F)cc2)C(=O)c2ccc(OC)cc2)cc1 [Example 59] | 1 to 10 | 25 to 50 |  |  | 
Cc1ccc(CSC(=Cc2sccc2C)C(=O)c2ccc(Cl)cc2)cc1 [Example 283] |  |  | 10 to 25 | 10 to 25 | 
Cc1ccc(CSC(=Cc2ccccc2OCc2ccccc2)C(=O)c2ccc(Cl)cc2)cc1 [Example 274] |  |  | 1 to 10 | 1 to 10 | 
O=C(O)c1ccc(C(=O)C(=Cc2ccc(F)c([N+](=O)[O-])c2)SCc2ccc(Cl)cc2Cl)cc1 [Example 301] |  |  | ≤ 1 | 1 to 10 | 
Cc1ccc(SC(=Cc2ccc(Cl)cc2)C(=O)c2ccc(Cl)cc2)cc1 [Example 91] | 1 to 10 | 25 to 50 |  |  | 
Cc1ccc(SC(=Cc2ccc(Br)cc2)C(=O)c2ccc(Cl)cc2)cc1 [Example 88] | 50 to 100 | 25 to 50 |  |  | 
Cc1ccc(SC(=Cc2c[nH]c3ccccc23)C(=O)c2ccc(Cl)cc2)cc1 [Example 81] | 1 to 10 | 10 to 25 |  |  | 
CC(=O)Oc1ccc(C=C(Sc2ccc(C)cc2)C(=O)c2ccc(Cl)cc2)cc1 [Example 86] | 1 to 10 | 10 to 25 |  |  | 
CCOc1cc(C=C(SCc2ccc(Cl)cc2Cl)C(=O)c2ccc(Cl)cc2)ccc1O [Example 117] |  |  | 1 to 10 | 10 to 25 | 
COc1ccc(SC(=Cc2ccc(C)s2)C(=O)c2ccc(Cl)cc2)cc1 [Example 64] | 50 to 100 | 50 to 100 |  |  | 
O=C(C(=Cc1ccc([N+](=O)[O-])c(O)c1)SCc1ccc(Br)cc1)c1ccc(Br)cc1 [Example 155] |  |  | 1 to 10 | 10 to 25 | 
